Laboratory results from patent publication US9480754B2, “Phospholipid ether analogs as cancer-targeting drug vehicles” (Cellectar Biosciences, Inc., priority 2014, dated 2016).

Assays:
Assay type in all cases: in vivo
[1] = system: Hepatoma Hep-3B; assay: 124I-CLR1404 tumor uptake, model 58; conditions: Nude mouse, Carcinoma
Procedure: (§1) All described animal studies were performed according to animal protocols approved by the Institutional Animal Care and Use Committee. Female athymic nude mice (Hsd:Athymic Nude-Foxnlnu or Crl:NU-Foxnlnu, Charles River Laboratories) about 4 to 5 weeks of age, 16 to 18 g (n=6), were used for human tumor xenograft studies. Mice were anesthetized with isoflurane and injected subcutaneously with viable tumor cells in 100 μl of Dulbecco's PBS (or, for glioma cells, […] of PBS) into the right flank. Inoculum sizes were 1×10^6 (for renal, ovarian, glioma, pancreatic, prostate, and NSCLC models), […] (for colorectal and uterine models), or 3×10^6 (breast).
(§2) Radioiodinated ^124I-CLR1404 was tested in subcutaneous and orthotopic xenografts of 60 different spontaneous, transgenic, human, and rodent malignant cell lines and tumor types. […] Representative examples are of both human (FIG. 5A-5I) and rodent (FIG. 5J-M) tumors.

[2] = system: Adrenal RL-251; assay: 124I-CLR1404 tumor uptake, model 5; conditions: SCID mouse, Adenocarcinoma
Procedure: as §1, §2

[3] = system: Neuroblastoma SK-N-AS; assay: 124I-CLR1404 tumor uptake, model 14; conditions: Nude mouse
Procedure: as §1, §2

[4] = system: Min mouse intestinal; assay: 124I-CLR1404 tumor uptake, model 42; conditions: Endogenous mouse, Adenocarcinoma
Procedure: as §1, §2

[5] = system: Intestinal polyp; assay: 124I-CLR1404 tumor uptake, model 56; conditions: Endogenous mouse, Adenoma (benign)
Procedure: as §1, §2

[6] = system: Pancreatic Mia Paca-2; assay: 124I-CLR1404 tumor uptake, model 21; conditions: Nude mouse, Carcinoma
Procedure: as §1, §2

[7] = system: Prostate MatLyLu; assay: 124I-CLR1404 tumor uptake, model 37; conditions: Rat, Adenocarcinoma
Procedure: as §1, §2

[8] = system: Uterine MES SA/Dx5; assay: 124I-CLR1404 tumor uptake, model 32; conditions: Nude mouse, Sarcoma
Procedure: as §1, §2

[9] = system: Pancreatic Capan-1; assay: 124I-CLR1404 tumor uptake, model 22; conditions: Nude mouse, Adenocarcinoma
Procedure: as §1, §2

[10] = system: Glioma C6; assay: 124I-CLR1404 tumor uptake, model 48; conditions: Rat xenograft
Procedure: as §1, §2

[11] = system: Lung NCI H-69 (Oat Cell); assay: 124I-CLR1404 tumor uptake, model 3; conditions: SCID mouse, Small cell carcinoma
Procedure: as §1, §2

[12] = system: Lung A-549 (NSCLC); assay: 124I-CLR1404 tumor uptake, model 2; conditions: SCID mouse, Adenocarcinoma
Procedure: as §1, §2

[13] = system: Melanoma; assay: 124I-CLR1404 tumor uptake, model 43; conditions: Mouse
Procedure: as §1, §2

[14] = system: TRAMP prostate; assay: 124I-CLR1404 tumor uptake, model 39; conditions: Endogenous mouse, Adenocarcinoma
Procedure: as §1, §2

[15] = system: Mammary SCC; assay: 124I-CLR1404 tumor uptake, model 44; conditions: ApcMin/+ mouse, Squamous cell carcinoma
Procedure: as §1, §2

[16] = system: Prostate LuCap; assay: 124I-CLR1404 tumor uptake, model 29; conditions: Mouse, Adenocarcinoma
Procedure: as §1, §2

In the case of `C[N+](C)(C)CCOP(=O)([O-])OCCCCCCCCCCCCCCCCCCc1ccc(I)cc1` [^124I-CLR1404], the Uptake [1] is reported as “No (Tumor:muscle ratio less than or equal to 2 was considered negative.)”, the Uptake [2] is reported as “Yes (Tumor uptake was considered positive if tumor to muscle ratio was greater than 3.)” and the Uptake [3] is reported as “Yes (Tumor uptake was considered positive if tumor to muscle ratio was greater than 3.)”. The Uptake [4] was “Yes (Tumor uptake was considered positive if tumor to muscle ratio was greater than 3.)”, the Uptake [5] was “No (Tumor:muscle ratio less than or equal to 2 was considered negative.)” and the Uptake [6] was “Yes (Tumor uptake was considered positive if tumor to muscle ratio was greater than 3.)”. For the same compound, the Uptake [7] was “Yes (Tumor uptake was considered positive if tumor to muscle ratio was greater than 3.)”, the Uptake [8] was “Yes (Tumor uptake was considered positive if tumor to muscle ratio was greater than 3.)” and the Uptake [9] was “Yes (Tumor uptake was considered positive if tumor to muscle ratio was greater than 3.)”. For the same compound, the Uptake [10] was “Yes (Tumor uptake was considered positive if tumor to muscle ratio was greater than 3.)”, the Uptake [11] was “Yes (Tumor uptake was considered positive if tumor to muscle ratio was greater than 3.)” and the Uptake [12] was “Yes (Tumor uptake was considered positive if tumor to muscle ratio was greater than 3.)”. The Uptake [13] was “Yes (Tumor uptake was considered positive if tumor to muscle ratio was greater than 3.)”, the Uptake [14] was “Yes (Tumor uptake was considered positive if tumor to muscle ratio was greater than 3.)” and the Uptake [15] was “Yes (Tumor uptake was considered positive if tumor to muscle ratio was greater than 3.)”. For the same compound, the Uptake [16] was “Yes (Tumor uptake was considered positive if tumor to muscle ratio was greater than 3.)”.
